Results published in ChEMBL document CHEMBL1201862, “PubChem BioAssay data set” (2004).
The source made the active and inactive calls.

How the values were obtained:
[1] = Luminescence Cell-Based Dose Confirmation to Identify Activators of 5'UTR Stem-Loop Driven Alpha-Synuclein mRNA Translation in H4 Neuroglioblastoma Cells. [Related pubchem assays: 1829 (Project Summary), 1814 (Primary HTS)]; assay type: functional
[2] = Luminescence Cell-Based Dose Response to Identify Activators of 5'UTR Stem-Loop Driven Prion Protein mRNA Translation in H4-C Neuroglioblastoma Cells. [Related pubchem assays: 1829 (Project Summary), 1814 (Primary HTS)]; assay type: functional
[3] = Luminescence Cell-Based Dose Confirmation HTS to Identify Activators of 5'UTR Stem-Loop Driven Alpha-Synuclein mRNA Translation in H4 Neuroglioblastoma Cells. [Related pubchem assays: 1829 (Project Summary), 1814 (Primary HTS)]; assay type: functional
H4 = assay: Luminescence Cell-Based Dose Response HTS to Identify Activators of 5'UTR Stem-Loop Driven Prion Protein mRNA Translation in H4 Neuroglioblastoma Cells. [Related pubchem assays: 1829 (Project Summary), 1814 (Primary HTS)]; assay type: functional; conditions: Homo sapiens
[4] = Luminescence Cell-Based Dose Response to Identify Activators of Luciferase Translation or Activity in H4-C Neuroglioblastoma Cells. [Related pubchem assays: 1829 (Project Summary), 1814 (Primary HTS)]; assay type: functional
[5] = P. falciparum late gametocyte killing, dose response, luminescence (AID 1117278); assay type: functional, cell-based;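 also: gametocytes exposed to compound for 24 hours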
[6] = Jurkat T cell cytotoxicity, dose response, cytotoxicity control for P. falciparum gametocyte viability project, luminescence (AID 1117277); assay type: functional, cell-based;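 also: potency reflects loss of cellular ATP meaning fewer viable cells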
[7] = target: T1, DNA repair protein RAD52 homolog (Homo sapiens, UniProt P43351); assay type: functional, biochemical
T1 sequence (P43351 whole entry): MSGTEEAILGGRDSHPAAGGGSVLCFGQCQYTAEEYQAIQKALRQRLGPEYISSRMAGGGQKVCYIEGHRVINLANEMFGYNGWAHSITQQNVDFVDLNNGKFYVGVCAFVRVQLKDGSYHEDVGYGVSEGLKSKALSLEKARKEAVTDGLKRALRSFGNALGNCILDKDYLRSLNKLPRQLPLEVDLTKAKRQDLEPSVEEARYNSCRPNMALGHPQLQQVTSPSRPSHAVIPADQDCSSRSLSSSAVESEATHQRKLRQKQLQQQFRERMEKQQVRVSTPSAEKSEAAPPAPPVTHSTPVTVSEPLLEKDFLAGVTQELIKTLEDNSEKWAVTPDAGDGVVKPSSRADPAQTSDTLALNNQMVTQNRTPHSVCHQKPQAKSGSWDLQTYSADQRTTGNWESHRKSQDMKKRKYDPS

[8] = target: T2, DNA repair and recombination protein RAD54-like (Homo sapiens, UniProt Q92698); assay: inhibitors of human RAD54 branch migration, confirmation, biochemical, fluorescence, cherry-picked samples, dose series (AID 651657); assay type: functional
T2 sequence (Q92698 whole entry): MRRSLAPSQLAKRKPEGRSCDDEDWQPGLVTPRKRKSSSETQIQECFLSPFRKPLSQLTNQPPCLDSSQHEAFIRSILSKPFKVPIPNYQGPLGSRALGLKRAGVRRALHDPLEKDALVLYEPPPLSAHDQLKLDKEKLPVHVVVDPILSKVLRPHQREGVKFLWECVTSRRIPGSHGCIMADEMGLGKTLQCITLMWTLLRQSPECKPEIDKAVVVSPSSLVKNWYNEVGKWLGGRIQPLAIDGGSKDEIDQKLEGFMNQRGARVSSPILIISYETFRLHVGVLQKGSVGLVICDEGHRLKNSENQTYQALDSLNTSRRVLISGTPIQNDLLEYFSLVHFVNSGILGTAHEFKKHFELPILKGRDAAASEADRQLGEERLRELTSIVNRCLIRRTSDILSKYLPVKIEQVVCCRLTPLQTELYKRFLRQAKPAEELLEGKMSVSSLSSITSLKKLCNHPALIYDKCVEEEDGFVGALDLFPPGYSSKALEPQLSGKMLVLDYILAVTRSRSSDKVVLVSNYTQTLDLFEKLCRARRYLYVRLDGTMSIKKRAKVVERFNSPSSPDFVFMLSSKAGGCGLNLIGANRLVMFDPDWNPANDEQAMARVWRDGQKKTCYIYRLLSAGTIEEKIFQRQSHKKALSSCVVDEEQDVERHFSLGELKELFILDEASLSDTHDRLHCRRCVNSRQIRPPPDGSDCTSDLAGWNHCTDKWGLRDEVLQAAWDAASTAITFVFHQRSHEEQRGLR

[9] = cytotoxicity toward NIH3T3 fibroblasts, dose response, counter-screen, cell-based, ATP luminescence, mouse fibroblasts (AID 2010); assay type: functional;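 also: cells exposed to compound for about 90 hours before reading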
[10] = inhibitors of intracellular T. cruzi replication, confirmation, NIH3T3 host cells, beta-gal luminescence (AID 2044); assay type: functional, cell-based;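 also: intracellular parasites grown in NIH/3T3 mouse fibroblasts as host cells; luminescent beta-galactosidase reporter signal from transgenic T. cruzi replicating inside host cells; inhibitors lower the luminescence signal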
[11] = target: T3, Calpain-2 catalytic subunit (Sus scrofa, UniProt P43367); assay: pig calpain II inhibitor potency, dose response, biochemical, fluorogenic peptide substrate (AID 1420); assay type: functional
T3 sequence (P43367 whole entry): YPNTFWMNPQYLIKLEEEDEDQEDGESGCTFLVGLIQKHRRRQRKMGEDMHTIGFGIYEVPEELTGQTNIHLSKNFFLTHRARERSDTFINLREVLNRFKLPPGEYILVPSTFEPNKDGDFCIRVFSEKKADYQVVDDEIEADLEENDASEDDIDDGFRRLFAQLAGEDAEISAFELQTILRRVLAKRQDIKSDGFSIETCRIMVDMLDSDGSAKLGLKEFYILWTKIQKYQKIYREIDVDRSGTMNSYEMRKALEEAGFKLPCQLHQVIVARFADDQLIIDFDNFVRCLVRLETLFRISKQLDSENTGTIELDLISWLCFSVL

Prothrombin = Prothrombin (Homo sapiens, UniProt P00734); assay: Thrombin 1536 HTS Dose Response Confirmation. [Related pubchem assays: 1046 (Thrombin 1536 HTS; hits were confirmed in this assay)]; assay type: functional
Albumin = Albumin (Bos taurus, UniProt P02769); assay: Counterscreen for inhibitors of T-cell receptor (TCR)-CD3 interaction: Fluorescence-based biochemical high throughput dose response assay to identify inhibitors of T-cell receptor (TCR)-CD3 interaction using a TAMRA-labeled BSA probe.; assay type: functional
[12] = Luminescence Cell-Based Dose Response HTS to Identify Activators of Luciferase Translation or Activity in H4 […] Cells. [Related pubchem assays: 1829 (Project Summary), 1814 (Primary HTS)]; assay type: functional
Nonstructural protein 1 = Nonstructural protein 1 (Influenza A virus, UniProt Q194T2); assay type: functional, Influenza A virus (A/California/07/2009(H1N1))
cells = assay type: functional
[13] = target: T4, Carboxy-terminal domain RNA polymerase II polypeptide A small phosphatase 1 (Homo sapiens, UniProt Q9GZU7); assay: inhibitors of CTDSP1, concentration-response testing, biochemical assay, absorbance-based, actives from ultra-high-throughput screening (AID 540297); assay type: functional
T4 sequence (Q9GZU7 whole entry): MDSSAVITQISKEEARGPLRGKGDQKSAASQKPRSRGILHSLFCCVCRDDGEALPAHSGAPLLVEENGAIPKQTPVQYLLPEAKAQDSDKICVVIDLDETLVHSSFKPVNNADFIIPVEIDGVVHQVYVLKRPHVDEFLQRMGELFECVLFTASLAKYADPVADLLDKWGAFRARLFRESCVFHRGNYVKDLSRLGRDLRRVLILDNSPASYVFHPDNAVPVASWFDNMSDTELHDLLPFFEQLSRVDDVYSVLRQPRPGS

Caspase-6 = target: T5, Caspase-6 (Homo sapiens, UniProt P55212); assay: human caspase-6 inhibitors, dose response, biochemical, VEID-R110 fluorescence, cherry-pick (AID 720632)
T5 sequence (P55212 whole entry): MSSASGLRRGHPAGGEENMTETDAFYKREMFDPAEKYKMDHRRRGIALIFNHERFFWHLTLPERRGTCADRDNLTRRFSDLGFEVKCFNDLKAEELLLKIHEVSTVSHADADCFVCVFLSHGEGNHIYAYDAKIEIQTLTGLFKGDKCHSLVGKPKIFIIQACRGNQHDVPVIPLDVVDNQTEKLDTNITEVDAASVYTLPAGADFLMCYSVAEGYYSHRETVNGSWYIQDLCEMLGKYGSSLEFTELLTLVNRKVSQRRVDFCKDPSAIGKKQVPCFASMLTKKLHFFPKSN

[14] = target: T6, Small ubiquitin-related modifier 1 (Homo sapiens, UniProt P63165); assay: inhibitors of SUMO1 partner interactions, dose response, biochemical, FRET (AID 624383); assay type: functional; conditions: read-out: IC50_Mean
[15] = target: T6, Small ubiquitin-related modifier 1; assay: inhibitors of SUMO1 peptide binding, dose response, biochemical, fluorescence polarization, uHTS hits (AID 624382); assay type: functional; conditions: read-out: IC50_Mean
[16] = P. falciparum Dd2 growth inhibitors, dose response, SYBR Green, dry powder samples, set 9 (AID 1159568); assay type: functional, cell-based

Albumin, sequence (P02769 whole entry): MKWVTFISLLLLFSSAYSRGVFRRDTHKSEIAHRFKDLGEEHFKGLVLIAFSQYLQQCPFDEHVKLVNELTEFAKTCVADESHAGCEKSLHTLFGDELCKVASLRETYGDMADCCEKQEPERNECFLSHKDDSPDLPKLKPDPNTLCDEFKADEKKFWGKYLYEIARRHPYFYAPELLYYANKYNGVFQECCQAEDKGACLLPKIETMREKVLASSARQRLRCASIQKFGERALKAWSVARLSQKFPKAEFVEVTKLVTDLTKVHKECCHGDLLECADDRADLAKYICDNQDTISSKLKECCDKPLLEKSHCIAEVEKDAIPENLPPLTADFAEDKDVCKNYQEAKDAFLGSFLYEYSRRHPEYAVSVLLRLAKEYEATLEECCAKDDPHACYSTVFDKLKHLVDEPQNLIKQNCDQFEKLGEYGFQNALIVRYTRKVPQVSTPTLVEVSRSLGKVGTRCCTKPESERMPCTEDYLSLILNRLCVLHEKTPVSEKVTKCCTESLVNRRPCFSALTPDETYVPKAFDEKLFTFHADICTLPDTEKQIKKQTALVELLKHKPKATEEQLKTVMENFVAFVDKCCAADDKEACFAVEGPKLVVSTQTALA
T6 sequence (P63165 whole entry): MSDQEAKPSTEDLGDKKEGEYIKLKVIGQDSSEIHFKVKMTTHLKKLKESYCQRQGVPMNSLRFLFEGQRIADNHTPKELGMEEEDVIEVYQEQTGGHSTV
Nonstructural protein 1, sequence (Q194T2 whole entry): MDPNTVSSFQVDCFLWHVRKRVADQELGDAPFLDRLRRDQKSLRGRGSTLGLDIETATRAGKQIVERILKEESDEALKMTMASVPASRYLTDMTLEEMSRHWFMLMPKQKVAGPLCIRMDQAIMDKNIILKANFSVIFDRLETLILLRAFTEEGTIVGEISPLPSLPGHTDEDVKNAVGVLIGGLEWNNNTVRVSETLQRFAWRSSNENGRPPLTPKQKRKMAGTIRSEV

## Cc1ccnc(SCc2nc3ccccc3s2)n1
[1]
  EC50: > 12 µM (inconclusive)
[2]
  EC50: 3.21 µM (active)
[3]
  EC50: < 0.1 µM (active)
H4
  EC50: 6.54 µM (active)
[4]
  EC50: > 12 µM (not active)

## CC1CCCCC12NC(=O)N(CC(=O)NCCc1ccccn1)C2=O (stereo not given)
[5]
  IC50: > 109 µM (inactive)
[6]
  IC50: > 83.3 µM (inactive)

## Cc1cc(N2CCN(C)CC2)nc2ccc(NC(S)=NCCCN3CCN(C)CC3)cc12
[7]
  AC50: 3.59 µM (active)
[8]
  AC50: 24.6 µM (active)

## Cc1ccc2nc3c(c(Nc4ccc(O)cc4)c2c1)CCC3
[7]
  AC50: 20.5 µM (active)
[8]
  AC50: 39 µM (active)
[9]
  EC50: 8.88 µM (active)
[10]
  EC50: 1.06 µM (active)

## Cc1ccc(NC(=O)c2cc(N3C(=O)C4CCCCC4C3=O)ccc2N2CCOCC2)cc1 (stereo not given)
[11]
  IC50: 14.9 µM (not active)

## Cc1sc2c(c1C)c(=O)n(-c1ccc(F)cc1)c(=O)n2CC(=O)NCc1ccco1
[11]
  IC50: 25.1 µM (not active)

## CC1(C)CC(=O)C(Sc2nnc(-c3ccc(O)cc3)n2CC2CCCO2)C(=O)C1 (stereo not given)
[5]
  IC50: > 109 µM (inactive)
[6]
  IC50: > 83.3 µM (inactive)

## CCC(=O)n1nc(-c2ccccc2)nc1SCC(=O)Nc1ccc(C)cc1
Prothrombin
  IC50: 1.22 µM (active)

## CCn1c(C)nc2cc(C(=O)NNC(=S)NC(=O)c3ccccc3)ccc21
Albumin
  IC50: > 94.1 µM (inactive)

## O=C(Nc1nc(-c2cccs2)cs1)c1ccc(Cl)cc1
Prothrombin
  IC50: 4.5 µM (active)

## Cc1ccc(C)c(N=Nc2nc3ccccc3n2C)c1
[1]
  EC50: 0.393 µM (active)
[12]
  EC50: 0.139 µM (inconclusive)
[2]
  EC50: 0.275 µM (active)
H4
  EC50: < 0.1 µM (active)
Nonstructural protein 1
  IC50: 14.3 µM (active)
[4]
  EC50: 0.281 µM (active)

## COc1ccc(-c2cc(C(=O)NCc3cn(C)nc3C)c3ccccc3n2)cc1OC
[11]
  IC50: > 50 µM (not active)

## COc1ccccc1-c1ccc(NC2CCCCC2)nn1
[1]
  EC50: 0.442 µM (active)
[12]
  EC50: 52.7 µM (active)
[2]
  EC50: 1.68 µM (active)
[3]
  EC50: 0.6 µM (active)
H4
  EC50: < 0.1 µM (active)
[4]
  EC50: > 12 µM (not active)

## O=C(Nc1ncc(Cc2ccccc2)s1)C1=NCCN1
cells
  IC50: 14 µM (active)
[5]
  IC50: > 109 µM (inactive)
[6]
  IC50: > 83.3 µM (inactive)

## O=C(COC(=O)c1cccnc1)Nc1ccc(F)cc1
[5]
  IC50: > 109 µM (inactive)
[6]
  IC50: > 83.3 µM (inactive)

## O=C(O)c1cnc2c([N+](=O)[O-])cccc2c1O
[13]
  IC50: 5.65 µM (active)
Caspase-6
  AC50: 5.77 µM (active)
Albumin
  IC50: > 94 µM (inactive)

## Cc1cc(-c2cc(NC=O)c3ncc(-c4cccc(C(=O)NCCN(C)C)c4)n3c2)cc(C)c1O
[7]
  AC50: 1.54 µM (active)
[14]
  IC50: 20.2 µM (inactive)
[8]
  AC50: 8.33 µM (active)
[15]
  IC50: > 66.6 µM (inactive)

## O=C(Nc1cc(F)ccc1F)N1CCCCN2[C@H](CO)[C@H](c3ccc(C4=CCCCC4)cc3)[C@@H]2C1
[16]
  AC50: 12.2 µM (active)

## COc1cccc(S(=O)(=O)N2CCCCN3[C@H](CO)[C@H](c4ccc(C#CCC(C)C)cc4)[C@H]3C2)c1
[16]
  AC50: 2.41 µM (active)

## C[C@@H]1CCCCO[C@@H](CN(C)S(=O)(=O)c2ccccc2)[C@H](C)CN([C@H](C)CO)C(=O)c2cc(NC(=O)Nc3ccc4c(c3)OCO4)ccc2O1
[16]
  AC50: 1.17 µM (active)

## N#C[C@H]1[C@@H](c2ccc(C3=CCCCC3)cc2)[C@@H](CO)N1C(=O)Nc1ccccc1F
[16]
  AC50: 15.8 µM (active)

## COc1cccc(NC(=O)c2ccc(NCCCN3CC(C)CC(C)C3)c([N+](=O)[O-])c2)c1 (stereo not given)
[11]
  IC50: 3.92 µM (not active)
